Patent publication US9770026B2, “Substituted pyrimidine compound and uses thereof” (Shenyang Sinochem Agrochemicals R&D Co., Ltd., priority 2012, dated 2017)

Assays:
wheat powdery mildew = assay: protectant activity in vivo against wheat powdery mildew; conditions: 400 ppm
cucumber downy mildew = assay: protectant activity in vivo against cucumber downy mildew; conditions: for control effect against cucumber downy mildew (%): protectant activity
armyworm = assay: bioactivity test against armyworm, airbrush spray; assay type: in vivo; conditions: for control (test results against armyworm): mortality after 72 h
carmine spider mite = assay: bioactivity test against carmine spider mite, airbrush spray; assay type: in vivo; conditions: for Insecticidal activity against carmine spider mite (% ): contrastive test; for control against carmine spider mite: mortality after 72 hrs
Procedure, shortened: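 Broadbean seedlings infested with adult mites were sprayed with compound (acetone/methanol stock diluted in 0.1% Tween 80 water) by airbrush at 0.7 kg/cm^2, 0.5 ml. Three replicates were run. Mortality was scored after 72 hrs.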

Diamond back moth = assay: insecticidal activity against diamond back moth, airbrush spray; assay type: in vivo; conditions: 600 ppm, mortality after 72 hrs
Procedure: Compounds were dissolved in mixed solvent (acetone:methanol=1:1), and diluted to required concentration with water containing 0.1% of tween 80.
Diamond back moth, armyworm, peach aphid and carmine spider mite were used as targets and the method of spraying by airbrush was used for determination of insecticidal biassays.
The method of spraying by airbrush: The cabbage leaves were made into plates of 2 cm diameter by use of punch. A test solution (0.5 ml) was sprayed by airbrush at the pressure of 0.7 kg/cm^2 to both sides of every plate. 10 Second instar larvae were put into the petri-dishes after the leaf disc air-dried and 3 replicates were set for each treatment. Then the insects were maintained in observation room (25° C., 60˜70% R.H.). Scores were conducted and mortalities were calculated after 72 hrs.

[1] = system: Green peach aphids (Myzus Persicae Sulzer); assay: bioactivity test against green peach aphid, airbrush foliar spray; assay type: in vivo; conditions: for Insecticidal activity against peach aphid (%): contrastive test; for control (test results against green peach aphid): death rate after 48 hrs
Procedure, shortened: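 Death rate was scored at 48 hrs, held at 25±1 C and 60±5% RH, following airbrush foliar spray (0.5 mL, 10 psi) onto cabbage leaf discs bearing about 15-30 aphids. Test solutions: compound dissolved in 1:1 acetone:methanol, brought to concentration with 0.1% tween 80 water.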

Row | Compound | protectant activity against wheat powdery mildew in vivo (wheat powdery mildew) [%] | control effect against cucumber downy mildew (%) (cucumber downy mildew; 6.25 mg/L) | control effect against cucumber downy mildew (%) (cucumber downy mildew; 12.5 mg/L) | control effect against cucumber downy mildew (%) (cucumber downy mildew; 25 mg/L) | control effect against cucumber downy mildew (%) (cucumber downy mildew; 50 mg/L) | control effect against cucumber downy mildew (%) (cucumber downy mildew; 100 mg/L) | control effect against cucumber downy mildew (%) (cucumber downy mildew; 400 mg/L) | protectant activity against cucumber downy mildew in vivo (cucumber downy mildew; 6.25 ppm) [%] | protectant activity against cucumber downy mildew in vivo (cucumber downy mildew; 12.5 ppm) [%] | protectant activity against cucumber downy mildew in vivo (cucumber downy mildew; 25 ppm) [%] | protectant activity against cucumber downy mildew in vivo (cucumber downy mildew; 50 ppm) [%] | protectant activity against cucumber downy mildew in vivo (cucumber downy mildew; 100 ppm) [%] | protectant activity against cucumber downy mildew in vivo (cucumber downy mildew; 400 ppm) [%] | Insecticidal activity against armyworm (%) (armyworm; 10 mg/L) | Insecticidal activity against armyworm (%) (armyworm; 100 mg/L) | Insecticidal activity against armyworm (%) (armyworm; 600 mg/L) | control (test results against armyworm) (armyworm; 100 ppm) [%] | control (test results against armyworm) (armyworm; 600 ppm) [%] | control against carmine spider mite (carmine spider mite; 100 ppm) [%] | control against carmine spider mite (carmine spider mite; 600 ppm) [%] | further results
1 | Cc1ncnc(NCCc2ccc(Oc3ccc(C(F)(F)F)cc3)nc2)c1Cl [III-22] | 100 | 100 | 100 | 100 | 100 | 100 | 100 | 100 | 100 | 100 | 100 | 100 | 100 | 71 | 100 | 100 | 100 | 100 | 100 | 100 | Insecticidal activity against carmine spider mite (% ) (carmine spider mite; 10 mg/L): 72%; Insecticidal activity against carmine spider mite (% ) (carmine spider mite; 100 mg/L): 100%; Insecticidal activity against carmine spider mite (% ) (carmine spider mite; 600 mg/L): 100%; control (test results against diamond back moth) (Diamond back moth): 100%; Insecticidal activity against peach aphid (%) ([1]; 1.25 mg/L): 67%; Insecticidal activity against peach aphid (%) ([1]; 2.5 mg/L): 98%; Insecticidal activity against peach aphid (%) ([1]; 5 mg/L): 100%; Insecticidal activity against peach aphid (%) ([1]; 10 mg/L): 100%; Insecticidal activity against peach aphid (%) ([1]; 100 mg/L): 100%; Insecticidal activity against peach aphid (%) ([1]; 600 mg/L): 100%; control (test results against green peach aphid) ([1]; 10 ppm): 100%; control (test results against green peach aphid) ([1]; 100 ppm): 100%; control (test results against green peach aphid) ([1]; 600 ppm): 100%
2 | CCc1ncnc(NCCc2ccc(Oc3ccc(Cl)cc3)nc2)c1Cl [III-187] | 100 | 100 | 100 | 100 | 100 | 100 | 100 | 100 | 100 | 100 | 100 | 100 | 100 | 95 | 100 | 100 | 100 | 100 | 100 | 100 | control (test results against diamond back moth) (Diamond back moth): 100%; Insecticidal activity against peach aphid (%) ([1]; 10 mg/L): 100%; Insecticidal activity against peach aphid (%) ([1]; 100 mg/L): 100%; Insecticidal activity against peach aphid (%) ([1]; 600 mg/L): 100%; control (test results against green peach aphid) ([1]; 10 ppm): 100%; control (test results against green peach aphid) ([1]; 100 ppm): 100%; control (test results against green peach aphid) ([1]; 600 ppm): 100%
